The record followed here is patent publication US10385057B2, “Pyrazole compounds and methods of making and using same” (Lundbeck La Jolla Research Center, Inc., priority 2015, dated 2019).

Where only a bound is given, the exact number is not on record here.

For assay [1], the target named is T1, MAGL (Homo sapiens, UniProt Q99685).
T1 construct: human prefrontal cortex or cell membrane fractions for human assays; from tissue
T1 sequence (Q99685 1-303): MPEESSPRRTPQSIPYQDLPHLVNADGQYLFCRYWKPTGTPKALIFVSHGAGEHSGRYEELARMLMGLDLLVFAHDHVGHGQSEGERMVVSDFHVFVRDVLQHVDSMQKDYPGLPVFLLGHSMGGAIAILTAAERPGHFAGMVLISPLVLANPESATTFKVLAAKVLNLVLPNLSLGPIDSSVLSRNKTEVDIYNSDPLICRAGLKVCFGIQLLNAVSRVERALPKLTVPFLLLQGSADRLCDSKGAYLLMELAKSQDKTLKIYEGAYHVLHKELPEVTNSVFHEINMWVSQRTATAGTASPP
Description: In vitro competitive activity-based protein profiling, human MAGL. Type of assay: biochemical. The following applies: for inhibition at 10 µM: read-out: MAGL % inh. 10 μM (human); for inhibition at 1 µM: read-out: MAGL % inh. 1 μM (human). The protocol:
(§1) In Vitro Competitive Activity-Based Protein Profiling.
(§2) Proteomes (mouse brain membrane fraction or cell lysates for mouse assays; human prefrontal cortex or cell membrane fractions for human assays) (50 μL, 1.0 mg/mL total protein concentration) were preincubated with varying concentrations of inhibitors at 37° C. After 30 min, FP-Rh or HT-01 (1.0 μL, 50 μM in DMSO) was added and the mixture was incubated for another 30 min at 37° C. Reactions were quenched with SDS loading buffer (15 μL—4×) and run on SDS-PAGE. Following gel imaging, serine hydrolase activity was determined by measuring fluorescent intensity of gel bands corresponding to MAGL and FAAH using ImageJ 1.43u software.

Assay [2] addresses T2, FAAH (Homo sapiens, UniProt O00519).
T2 construct: human prefrontal cortex or cell membrane fractions for human assays; from tissue
T2 sequence (O00519 1-579): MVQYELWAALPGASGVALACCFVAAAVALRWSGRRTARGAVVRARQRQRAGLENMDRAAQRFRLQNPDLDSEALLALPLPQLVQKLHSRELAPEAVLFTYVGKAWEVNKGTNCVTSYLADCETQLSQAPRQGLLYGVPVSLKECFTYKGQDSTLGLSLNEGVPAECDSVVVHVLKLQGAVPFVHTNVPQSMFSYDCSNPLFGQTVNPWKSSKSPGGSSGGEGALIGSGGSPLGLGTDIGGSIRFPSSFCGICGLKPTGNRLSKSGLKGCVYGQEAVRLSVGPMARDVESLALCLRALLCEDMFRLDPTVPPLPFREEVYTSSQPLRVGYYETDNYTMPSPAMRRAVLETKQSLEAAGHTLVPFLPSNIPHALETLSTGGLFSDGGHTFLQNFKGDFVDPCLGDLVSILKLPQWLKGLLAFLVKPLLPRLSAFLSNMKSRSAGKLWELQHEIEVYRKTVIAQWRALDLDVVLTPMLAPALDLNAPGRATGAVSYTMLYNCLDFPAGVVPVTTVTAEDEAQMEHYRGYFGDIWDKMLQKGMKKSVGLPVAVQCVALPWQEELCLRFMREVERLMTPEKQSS
Description: In vitro competitive activity-based protein profiling, human FAAH. To be noted: for inhibition at 10 µM: read-out: FAAH % inh. 10 μM (human); for inhibition at 1 µM: read-out: FAAH % inh. 1 μM (human). The assay is classed as biochemical. The protocol:
as §1, §2

For assay [3], the target named is T3, MAGL (Mus musculus, UniProt O35678).
T3 construct: mouse brain membrane fraction or cell lysates for mouse assays; from tissue
T3 sequence (O35678 1-303): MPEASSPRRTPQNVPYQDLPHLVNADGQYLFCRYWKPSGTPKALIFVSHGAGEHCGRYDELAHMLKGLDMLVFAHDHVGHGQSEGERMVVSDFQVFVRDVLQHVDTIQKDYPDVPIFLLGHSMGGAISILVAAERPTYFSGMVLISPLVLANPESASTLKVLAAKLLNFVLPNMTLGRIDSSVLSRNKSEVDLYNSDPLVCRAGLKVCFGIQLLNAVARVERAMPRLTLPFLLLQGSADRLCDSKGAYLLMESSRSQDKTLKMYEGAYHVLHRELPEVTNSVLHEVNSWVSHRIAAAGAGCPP
Put plainly: In vitro competitive activity-based protein profiling, mouse MAGL. Type of assay: biochemical. To be noted: for inhibition at 1 µM: read-out: MAGL % inh. 1 μM (mouse). Put shortly: (§3)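 Mouse brain membranes or cell lysates (mouse) and human prefrontal cortex or cell membrane fractions (human), 1.0 mg/mL protein, preincubated with inhibitor 30 min at 37 °C, then FP-Rh or HT-01 probe 30 min at 37 °C. SDS-PAGE; MAGL and FAAH activity from in-gel fluorescence band intensity.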

Assay [4] deals with T4, FAAH (Mus musculus, UniProt O08914).
T4 construct: mouse brain membrane fraction or cell lysates for mouse assays; from tissue
T4 sequence (O08914 1-579): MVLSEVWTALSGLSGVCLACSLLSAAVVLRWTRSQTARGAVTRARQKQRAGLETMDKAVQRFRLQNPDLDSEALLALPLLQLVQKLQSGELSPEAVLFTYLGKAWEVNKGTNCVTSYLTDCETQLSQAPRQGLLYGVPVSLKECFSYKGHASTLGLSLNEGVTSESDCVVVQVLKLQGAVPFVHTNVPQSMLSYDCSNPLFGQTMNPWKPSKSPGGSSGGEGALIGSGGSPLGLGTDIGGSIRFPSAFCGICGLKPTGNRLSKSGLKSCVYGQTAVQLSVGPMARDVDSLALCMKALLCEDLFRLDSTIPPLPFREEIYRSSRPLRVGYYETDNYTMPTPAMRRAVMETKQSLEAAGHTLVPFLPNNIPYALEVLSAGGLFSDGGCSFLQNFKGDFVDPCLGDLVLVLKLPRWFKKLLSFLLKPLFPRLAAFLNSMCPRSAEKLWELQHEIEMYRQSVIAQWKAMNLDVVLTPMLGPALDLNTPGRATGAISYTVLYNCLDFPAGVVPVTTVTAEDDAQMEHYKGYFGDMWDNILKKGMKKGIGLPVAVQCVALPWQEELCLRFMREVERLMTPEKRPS
Description: In vitro competitive activity-based protein profiling, mouse FAAH. The assay is classed as biochemical. To be noted: for inhibition at 1 µM: read-out: FAAH % inh. 1 μM (mouse). Put shortly:
as §3

In assay [5] the target is T3, MAGL. Description: Mouse brain proteomes from inhibitor treated mice, MAGL. The following applies: oral gavage, brain 4 h after administration, read-out: MAGL % inh. 5 mg/kg (mouse). Type of assay: in vivo. As for the experimental part: Preparation of Mouse Brain Proteomes from Inhibitor Treated Mice.
Inhibitors were administered to wild-type C57Bl/6J by oral gavage in a vehicle of polyethylene glycol. Each animal was sacrificed 4 h following administration and brain proteomes were prepared and analyzed according to previously established methods (See Niphakis, M. J., et al. (2011) ACS Chem. Neurosci. and Long, J. Z., et al. Nat. Chem. Biol. 5:37-44).

As for `O=C(O)c1cnn(C(=O)N2CC3CN(Cc4ccc(Cl)cc4)CC3C2)c1` (stereo not shown) [Example 46, 1-(5-(4-chlorobenzyl)octahydropyrrolo[3,4-c]pyrrole-2-carbonyl)-1H-pyrazole-4-carboxylic acid], the inhibition at 10 µM on MAGL [1] is ≥ 75%; on FAAH [2], 0 to 25%. The values for the inhibition at 1 µM on MAGL [3] and on FAAH [4] were 0 to 25% and ≥ 75%, respectively.

With `O=C(O)c1cnn(C(=O)N2CC3CN(Cc4ccc(C(F)(F)F)cc4)CC3C2)c1` (stereo not shown) [Example 47, 1-(5-(4-(trifluoromethyl)benzyl)octahydropyrrolo[3,4-c]pyrrole-2-carbonyl)-1H-pyrazole-4-carboxylic acid], the inhibition at 10 µM at MAGL [1] is ≥ 75%; at FAAH [2] it was 50 to 75%. Also, the inhibition at 1 µM was 0 to 25% on MAGL [3] and ≥ 75% on FAAH [4].

With `O=C(O)c1cnn(C(=O)N2CCC3(CCN(Cc4ccc(Cl)cc4)C3)C2)c1` (stereo not shown) [Example 48, 1-(7-(4-chlorobenzyl)-2,7-diazaspiro[4.4]nonane-2-carbonyl)-1H-pyrazole-4-carboxylic acid], the inhibition at 10 µM on MAGL [1] was ≥ 75%; on FAAH [2], 0 to 25%. Besides, the inhibition at 1 µM is 0 to 25% at MAGL [3] and ≥ 75% on FAAH [4].

Regarding `CN(Cc1ccccc1Cl)[C@H]1C[C@@H]2CN(C(=O)n3cc(C(=O)O)cn3)C[C@@H]2C1` [Example 183, 1-(trans-5-((2-chlorobenzyl)(methyl)amino)octahydrocyclopenta[c]pyrrole-2-carbonyl)-1H-pyrazole-4-carboxylic acid], the inhibition at 10 µM is ≥ 75% at MAGL [1] and 25 to 50% at FAAH [2]. Moreover, the inhibition at 1 µM at MAGL [3] lay within 0 to 25%; on FAAH [4], 50 to 75%.

As to `O=C(O)c1cnn(C(=O)N2CCC3(CCN(Cc4cccc(Oc5ccccc5)c4)C3)C2)c1` (stereo not shown) [Example 185, 1-(7-(3-phenoxybenzyl)-2,7-diazaspiro[4.4]nonane-2-carbonyl)-1H-pyrazole-4-carboxylic acid], the inhibition at 10 µM at MAGL [1] was ≥ 75%; at FAAH [2], 25 to 50%. Further, the values for the inhibition at 1 µM on MAGL [3] and at FAAH [4] were 0 to 25% and ≥ 75%, respectively.

As for `CN(Cc1cccc(Oc2ccccc2)c1)[C@H]1C[C@@H]2CN(C(=O)n3cc(C(=O)O)cn3)C[C@@H]2C1` [Example 188, 1-(trans-5-(methyl(3-phenoxybenzyl)amino)octahydrocyclopenta[c]pyrrole-2-carbonyl)-1H-pyrazole-4-carboxylic acid], the inhibition at 10 µM was ≥ 75% at MAGL [1] and 50 to 75% at FAAH [2]. Moreover, the inhibition at 1 µM on MAGL [3] is 0 to 25%; on FAAH [4], 50 to 75%.

In the case of `O=C(c1cnn(C(=O)N2CC3CN(Cc4cccc(Oc5ccc(Cl)cc5)c4)CC3C2)c1)N1CCCC1` (stereo not shown) [Example 190, (5-(3-(4-chlorophenoxy)benzyl)hexahydropyrrolo[3,4-c]pyrrol-2(1H)-yl)(4-(pyrrolidine-1-carbonyl)-1H-pyrazol-1-yl)methanone], the inhibition at 10 µM at MAGL [1] and at FAAH [2] was ≥ 75% each time. The inhibition at 1 µM is 0 to 25% on MAGL [3] and ≥ 75% on FAAH [4].

For `NC(=O)c1cnn(C(=O)N2CC[C@]3(CCN(Cc4ccc(N5CCOCC5)cc4C(F)(F)F)C3)C2)c1` [Example 195, (S)-1-(7-(4-morpholino-2-(trifluoromethyl)benzyl)-2,7-diazaspiro[4.4]nonane-2-carbonyl)-1H-pyrazole-4-carboxamide], the inhibition at 5 mg/kg at MAGL [5] was ≥ 75%. For the same compound, on MAGL [3], the concentration for half-maximal inhibition (IC50) (usually the concentration that gives 50% inhibition) lay within 0.1 to 1 µM and the inhibition at 1 µM was ≥ 75%. Also, on FAAH [4], the 50% inhibitory concentration (IC50) is ≤ 0.1 µM and the inhibition at 1 µM was ≥ 75%.

As for `O=C(O)c1cnn(C(=O)N2CC3CN(Cc4cc(Cl)ccc4C(F)(F)F)CC3C2)c1` (stereo not shown) [Example 196, 1-(5-(5-chloro-2-(trifluoromethyl)benzyl)octahydropyrrolo[3,4-c]pyrrole-2-carbonyl)-1H-pyrazole-4-carboxylic acid], the inhibition at 1 µM was 0 to 25% on MAGL [1], ≥ 75% at FAAH [2], 0 to 25% on MAGL [3] and ≥ 75% at FAAH [4]. Besides, the inhibition at 10 µM on MAGL [1] and at FAAH [2] was ≥ 75% in each case.

As for `O=C(O)c1cnn(C(=O)N2CC3CN(Cc4ccc(N5CCCC5)cc4C(F)(F)F)CC3C2)c1` (stereo not shown) [Example 197, 1-(5-(4-(pyrrolidin-1-yl)-2-(trifluoromethyl)benzyl)octahydropyrrolo[3,4-c]pyrrole-2-carbonyl)-1H-pyrazole-4-carboxylic acid], the inhibition at 1 µM was 0 to 25% on MAGL [1], ≥ 75% on FAAH [2], 0 to 25% at MAGL [3] and ≥ 75% at FAAH [4]. Moreover, the inhibition at 10 µM at MAGL [1] and on FAAH [2] was ≥ 75% each time.

On to `O=C(O)c1cnn(C(=O)N2CC3CN(Cc4cc(N5CCCC5)cc(C(F)(F)F)c4)CC3C2)c1` (stereo not shown) [Example 198, 1-(5-(3-(pyrrolidin-1-yl)-5-(trifluoromethyl)benzyl)octahydropyrrolo[3,4-c]pyrrole-2-carbonyl)-1H-pyrazole-4-carboxylic acid], for which the inhibition at 1 µM is 0 to 25% on MAGL [1], ≥ 75% at FAAH [2], 0 to 25% on MAGL [3] and ≥ 75% on FAAH [4]. The inhibition at 10 µM on MAGL [1] was ≥ 75%; at FAAH [2], 50 to 75%.

In the case of `NC(=O)c1cnn(C(=O)N2CCC3(CCN(Cc4cc(N5CCOCC5)cc(C(F)(F)F)c4)C3)C2)c1` (stereo not shown) [Example 210, 1-(7-(3-morpholino-5-(trifluoromethyl)benzyl)-2,7-diazaspiro[4.4]nonane-2-carbonyl)-1H-pyrazole-4-carboxamide], the inhibition at 1 µM on MAGL [1] is ≥ 75%; on FAAH [2], ≥ 75%; at MAGL [3], 0 to 25%; at FAAH [4], ≥ 75%.
